Experiments:
[1] = molecular target: T1, SIRT1 (Homo sapiens, UniProt Q96EB6); test: Fluorogenic peptide deacetylation assay; type: biochemical; settings: increasing concentrations of SRT1720 (1 μM, 10 μM, 100 μM, 1 mM), 1 μg SIRT1, acetyl-Lys421 PCSK9-AMC peptide, compared to negative and positive controls (FIG. 4)
T1 sequence (Q96EB6 1-747): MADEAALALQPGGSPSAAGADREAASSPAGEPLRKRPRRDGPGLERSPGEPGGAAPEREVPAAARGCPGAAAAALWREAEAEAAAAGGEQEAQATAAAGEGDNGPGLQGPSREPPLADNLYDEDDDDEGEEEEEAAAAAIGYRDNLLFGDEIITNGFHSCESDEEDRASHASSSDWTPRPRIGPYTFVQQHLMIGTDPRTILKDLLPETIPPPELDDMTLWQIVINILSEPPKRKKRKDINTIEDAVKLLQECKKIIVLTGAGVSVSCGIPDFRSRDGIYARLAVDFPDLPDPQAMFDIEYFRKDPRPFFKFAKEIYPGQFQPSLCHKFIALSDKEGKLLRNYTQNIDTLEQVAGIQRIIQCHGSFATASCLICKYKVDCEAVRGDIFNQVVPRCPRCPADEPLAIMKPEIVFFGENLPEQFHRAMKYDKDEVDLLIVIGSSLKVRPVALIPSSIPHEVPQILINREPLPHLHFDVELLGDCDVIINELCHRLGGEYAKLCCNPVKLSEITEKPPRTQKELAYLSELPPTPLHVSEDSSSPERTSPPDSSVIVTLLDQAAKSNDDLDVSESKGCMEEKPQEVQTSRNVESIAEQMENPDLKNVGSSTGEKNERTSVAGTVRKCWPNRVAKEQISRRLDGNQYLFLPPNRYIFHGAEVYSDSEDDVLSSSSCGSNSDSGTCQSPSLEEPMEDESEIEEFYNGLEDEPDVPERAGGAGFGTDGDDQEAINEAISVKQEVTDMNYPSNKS
Protocol: To analyse the deacetylation activity of SIRT1 on PCSK9, an acetylated PCSK9 peptide was designed with acetylated lysine 421 (Lys421)-tagged to an AMC fluorophore. The acetyl-PCSK9-AMC peptide was dissolved in DMSO and incubated with 1 μg SIRT1 with 1 μM, 10 μM, 100 μM and 1 mM SIRT1 activator SRT1720 in the deacetylation assay buffer containing 50 mM Tris-HCl [pH8.0], 1 mM MgCl2, 125 mM NaCl, 2.5 mM potassium chloride and 500 μM NAD+. Reactions were allowed to proceed for an incubation period of 1 hr at 37° C. Prior to quenching the reaction, 2 mM nicotinamide was added to 1× developing buffer (BML-KI176-1250, Enzo Lifesciences) in the deacetylation assay buffer (50 mM Tris-HCl [pH8.0], 1 mM MgCl2, 125 mM NaCl, 2.5 mM potassium chloride). At each time point, 50 μL of the reaction was removed and mixed with 50 μL of the developer solution. The quenched samples were kept at 37° C. for 45 min prior to fluorescence reading. The release of the fluorescent AMC was measured using a Tecan M200 PRO fluorometric plate reader with an excitation 360 nm and detection of emitted light in the range of […]. All reactions were normalized to control reactions in the absence of β-NAD (Ffinal=F+NAD−F-NAD).

[2] = molecular target: T2, SIRT1 (Mus musculus, UniProt Q923E4); settings: ApoE-/- mice; cited from earlier work
T2 construct: host or cells: ApoE-/- mice (endogenous protein of the animal)
T2 sequence (Q923E4 1-737): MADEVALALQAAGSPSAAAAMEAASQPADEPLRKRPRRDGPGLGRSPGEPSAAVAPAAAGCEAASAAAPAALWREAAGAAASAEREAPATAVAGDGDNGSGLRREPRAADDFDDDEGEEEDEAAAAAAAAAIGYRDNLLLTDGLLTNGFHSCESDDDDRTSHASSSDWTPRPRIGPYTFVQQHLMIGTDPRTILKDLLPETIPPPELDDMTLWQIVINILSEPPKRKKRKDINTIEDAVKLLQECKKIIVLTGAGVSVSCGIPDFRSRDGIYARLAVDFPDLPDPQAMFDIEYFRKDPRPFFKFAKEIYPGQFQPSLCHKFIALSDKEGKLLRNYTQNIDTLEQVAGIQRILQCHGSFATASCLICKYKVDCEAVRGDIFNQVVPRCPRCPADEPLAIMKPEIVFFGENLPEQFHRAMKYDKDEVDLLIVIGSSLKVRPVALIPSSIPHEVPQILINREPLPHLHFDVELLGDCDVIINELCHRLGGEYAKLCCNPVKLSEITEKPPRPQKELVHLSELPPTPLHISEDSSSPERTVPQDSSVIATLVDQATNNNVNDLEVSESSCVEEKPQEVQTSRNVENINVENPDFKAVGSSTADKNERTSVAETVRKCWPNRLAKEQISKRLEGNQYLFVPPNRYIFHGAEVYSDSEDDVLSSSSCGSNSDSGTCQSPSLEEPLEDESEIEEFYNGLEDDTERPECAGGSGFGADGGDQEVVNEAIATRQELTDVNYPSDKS

[3] = system: RAW 264.7 macrophages; test: Activity of acetylated vs deacetylated recombinant PCSK9 on RAW 264.7 macrophages (western blot for LDLR, PCSK9); type: cell-based, murine; settings: recombinant PCSK9 pretreated with pCAF and acetyl-CoA vs SIRT1 and NAD+, 15 mins (FIG. 7)
Protocol: Recombinant PCSK9 pretreated with SIRT1 and NAD+ or pCAF and acetyl-CoA were added on RAW 264.7 macrophages for 15 mins and lysed, separated by SDS-PAGE and blotted for LDLR, PCSK9 and b-actin. Representative bar graphs of LDLR, PCSK9 normalized to b-actin and PCSK9 expression normalized to LDLR expression.
Human HepG2 hepatocytes (American Type Culture Collection, Manassas, Va.) and murine RAW 264.7 cells (Mouse leukaemic monocyte macrophage cell line) were cultured in DMEM containing 10% fetal bovine serum (v/v). AML12 mouse hepatoma cells were cultured in a 1:1 (v/v) mixture of DMEM and Ham's F12 medium supplemented with insulin (5 μg ml-1), transferrin (5 μg ml-1), selenium (5 ng ml-1), dexamethasone (40 ng ml-1), and 10% fetal bovine serum (v/v). Where indicated, AML12 cells were exposed to 10 μM SRT3025 in 1% DMSO (v/v). The cells were maintained in a humidified atmosphere with 5% CO2 at 37° C.
Substrate protein, PCSK9 was incubated with 2 μg of recombinant pCAF and 50 μM acetyl-CoA in 20 μL of acetylation buffer (250 mM Tris-HCl [pH9.0], 20 mM MgCl2, 250 mM NaCl, 2.5 mM DTT). Reaction mixtures were incubated at 37° C. for 1 hour. Reaction was stopped by freezing. […] The reactions were analyzed by western blotting using anti-PCSK9 antibody (Abcam) to verify loading and anti-acetyl lysine (Cell signalling) to verify acetylation.

## O=C(Nc1ccccc1-c1cn2c(CN3CCNCC3)csc2n1)c1cnc2ccccc2n1 [SRT1720]
[1]
  fluorescence caused by deacetylation of fluorogenic PCSK9 peptide: increase in fluorescence

## COCCCc1sc(-c2ccccc2)nc1C(=O)Nc1ccccc1-c1nc2cc(CN3CCCC3)cnc2s1 [SRT3025]
[2]
  LDL-cholesterol: reducing LDL-cholesterol
  PCSK9 secretion: reduction in PCSK9 secretion
  atherosclerosis: protects against atherosclerosis

## acetyl-PCSK9: Recombinant PCSK9 pretreated with pCAF and acetyl-CoA
[3]
  activity of PCSK9 (LDLR, PCSK9 expression normalized to b-actin): more active

— patent publication US20180066070A1, “ACETYLATED PCSK9” (UNIVERSITAT ZURICH, priority 2015, published 2018)
